One assay relates to hypoxic HUVECs. Description: Immunofluorescent adherence assay, HL60 binding to hypoxic HUVECs. The assay is classed as cell-based, human. As to the method: (§1) Hypoxia or free radicals induce P-selectin (PS) translocation to the endothelial cell (EC) surface, where it participates in neutrophil (PMN) adhesion during reperfusion. To explore a mechanism whereby nitrovasodilators may attenuate postischemic leukosequestration, we tested whether stimulating the NO/cGMP pathway could attenuate surface PS expression in hypoxic human umbillical vein ECs. […] Under similar conditions, addition of the NO donor 3-morpholino sydnonimine (SIN-1, 0.1 mM) or the cGMP analog 8-Bromo-cGMP (cGMP, 10 nM) caused a reduction in vWF release; Control vWF, 11±0.4 mU/mL; SIN-1, 9.1±0.3 mU/mL; cGMP, 9.7±0.2 mU/mL; p<0.005 for both SIN-1 or cGMP vs Control.

In assay [1] the test system is P-selectin. Briefly: Surface P-selectin expression on hypoxic HUVECs (radiolabeled anti-PS antibody binding). The assay is classed as cell-based, human. As to the method: as §1
The test system of assay [2] is hypoxic human umbillical vein ECs. Briefly: vWF release from hypoxic HUVECs, NO/cGMP pathway. Conditions: hypoxia pO2<20 Torr 4 hours; SIN-1 0.1 mM, 8-Bromo-cGMP 10 nM. The assay is classed as cell-based. As to the method:
as §1

For assay [3], the system named is intracellular calcium concentration [Cai]. Description: Intracellular calcium by fura-2 fluorescence in hypoxic ECs. The assay is classed as cell-based, human. As to the method: as §1
(Calcium flux is commonly read through the fluorescence of an indicator in the cells.)

Assay [4] concerns P-selectin. Description: EC P-selectin expression by specific binding of 125I anti-P-selectin antibody. The assay is classed as cell-based, human. Conditions: cycloheximide 10 μg/mL given at onset of H, 4 hour time point. The protocol: (§2) Measurement of Weibel-Palade body exocytosis: ECs were plated into 24 well plates, rinsed 3 times with Hank's balanced salt solution, and then exposed to hypoxia or to normoxia for the indicated durations. For experiments in which vWF was measured, cells were maintained in serum-free medium. All other EC experiments were performed in the EC growth medium described above. […] EC P-selectin expression was determined by measuring the specific binding of a murine monoclonal anti-human P-selectin antibody (WAPS 12.2 clone, Endogen, Cambridge, Mass.; this is an IgGl which recognizes a calcium sensitive epitope and blocks P-selectin dependent neutrophil adhesion. Antibody was radiolabelled with ^125I by the lactoperoxidase method (19) using Enzymobeads (Bio-Rad, Hercules, Calif.), stored at 4° C. and used within one week of labelling. Binding assays were performed on HUVECs plated on 96 well plates, in which fresh M199 with 0.1% bovine serum albumin (Sigma, St. Louis, Mo.) was added immediately prior to each experiment. […] After binding for 1 hour at 37° C., monolayers were washed 4 times with HBSS/A, and bound antibody was eluted with 1% triton X-100 in PBS (200 μL/well) and counted. […] Following 4 hours of normoxic exposure, trichloroacetic acid-precipitable material was collected and counted.

For the next assay, the system named is ECs. Briefly: Protein synthesis: 35S-methionine/cysteine in trichloroacetic acid-precipitable material. The assay is classed as cell-based. Conditions: Homo sapiens; 10 μg/mL, 4 hrs. The protocol: as §2
A further assay relates to Human umbilical vein ECs. Briefly: vWF release from hypoxic endothelial cells (ELISA). The assay is classed as cell-based. Conditions: cycloheximide 10 μg/ml added at start of hypoxic period, 4 hours of hypoxia. As to the method:
Endothelial cell culture and exposure of cells to H or H/R. Human umbilical vein ECs were prepared from umbilical cords and grown in culture by the method of Jaffe (16) as modified by Thornton (17). Experiments utilized confluent ECs (passages 1-4) grown in Medium 199 supplemented with fetal bovine serum (15%; Gemini, Calabasas, Calif.), human serum (5%; Gemini), endothelial growth supplement (Sigma, St. Louis, Mo.), heparin (90 μg/ml; Sigma) and antibiotics, as described (17). When ECs achieved confluence, experiments were performed by placing cultures in an environmental chamber (Coy Laboratory Products, Ann Arbor, Mich.) which provided a controlled temperature (37° C.) and atmosphere with the indicated amount of oxygen, carbon dioxide (5%) and the balance made up of nitrogen. Use of this chamber for cell culture experiments has been described previously (15,18). During exposure of ECs to hypoxia (for a maximum of 16 hours), the oxygen tension in the culture medium was 14-18 torr and there was no change in the medium pH. Reoxygenation was performed by placing ECs in an ambient atmosphere containing carbon dioxide (5%) at 37° C.
Measurement of Weibel-Palade body exocytosis: ECs were plated into 24 well plates, rinsed 3 times with Hank's balanced salt solution, and then exposed to hypoxia or to normoxia for the indicated durations. For experiments in which vWF was measured, cells were maintained in serum-free medium. All other EC experiments were performed in the EC growth medium described above. For measurement of vWF, 200 μL aliquots of culture supernatant was removed at the indicated times, and a commercially available ELISA (American Diagnostica, Greenwich, Conn.), based on a polyclonal goat anti-human vWF antibody, was performed on duplicate specimens, with a standard curve generated using purified human vWF antigen supplied by the same vendor. EC P-selectin expression was determined by measuring the specific binding of a murine monoclonal anti-human P-selectin antibody (WAPS 12.2 clone, Endogen, Cambridge, Mass.; this is an IgGl which recognizes a calcium sensitive epitope and blocks P-selectin dependent neutrophil adhesion. Antibody was radiolabelled with ^125I by the lactoperoxidase method (19) using Enzymobeads (Bio-Rad, Hercules, Calif.), stored at 4° C. and used within one week of labelling. Binding assays were performed on HUVECs plated on 96 well plates, in which fresh M199 with 0.1% bovine serum albumin (Sigma, St. Louis, Mo.) was added immediately prior to each experiment. Cells were placed in a humidified environment at 37° C., and exposed to normoxia or H (in the presence or absence of 50 μM probucol, as indicated, Sigma) for the indicated durations. Cell monolayers were fixed for 15 min. with 1% paraformaldehyde^10 (cells exposed to H were fixed while still within the hypoxic environment), visually inspected to ensure that the monolayers remained intact, and washed twice with HBSS containing 0.5% bovine serum albumin (HBSS/A). Monolayers were then exposed to 10^5 cpm of ^125I-labelled anti-P-selectin antibody (WAPS 12.2) in the presence of 200 μg/mL of either unlabelled blocking antibody (WAPS 12.2) or nonblocking anti-P-selectin IgG of the same isotype (anti-GMP-140, AC1.2 clone, Becton-Dickinson, San Jose, Calif.) (20,21). After binding for 1 hour at 37° C., monolayers were washed 4 times with HBSS/A, and bound antibody was eluted with 1% triton X-100 in PBS (200 μL/well) and counted. […]

Here are results for two compounds from patent US8128963B2, “Methods for treating ischemic disorders using carbon monoxide” (The Trustees of Columbia University in the City Of New York, priority 1999, dated 2012).

For `Nc1nc2c(nc(Br)n2[C@@H]2O[C@@H]3COP(=O)(O)O[C@H]3[C@H]2O)c(=O)[nH]1` [cGMP, 8-Bromo-cGMP], the “decrease of HL60 binding to hypoxic HUVECs vs controls” value in the assay with hypoxic HUVECs stood at 86%. Moreover, the “PS expression in calcium-free medium” value with P-selectin [1] (ECs in calcium-free medium) was “Neither SIN-1 nor cGMP could further reduce PS expression”. Further, the “decrease of surface PS expression vs controls” value in the assay on P-selectin [1] (hypoxia 4 hours, SIN-1 0.1 mM, 8-Bromo-cGMP 10 nM) is 48%. Further, in assay [2], the vWF release was 9.7±0.2 mU/mL. Besides, the “hypoxia-increased intracellular calcium concentration [Cai]” value in assay [3] is given as “could be blocked”.

What is called inhibition is the drop in the measured response relative to a control, in per cent. The low end stands for little suppression, the high end for strong suppression. With `C[C@@H]1C[C@@H]([C@H](O)CC2CC(=O)NC(=O)C2)C(=O)[C@@H](C)C1` [cycloheximide], the “hypoxia-induced endothelial P-selectin expression” value with P-selectin [4] was “hypoxia still increased endothelial P-selectin expression, albeit at reduced levels”. Moreover, in the assay with ECs, the inhibition at 10 µg/mL is over 85%. For the same compound, the “decrease of hypoxia-induced vWF release” value with Human umbilical vein ECs was 12.5%.
